Test results as given in patent US20210361683A1, “COMPOSITIONS AND METHODS FOR THE TREATMENT OF MUSCLE CONTRACTURES” (Children's Hospital Medical Center, priority 2018, published 2021).
“Also recorded” adds a separate entry of the source.

How the values were obtained:
[1] = tested on: brachialis muscle after NBPI; experiment: Brachialis sarcomere length (muscle length) 4 weeks post-NBPI; assay type: in vivo, mice; details: 0.3 mg/kg, P8 to P33
Method: Sarcomere lengths were measured from single muscle fibers, acquiring 6 images per fiber by differential interference contrast (DIC) microscopy on a Nikon Eclipse Ti-E inverted microscope with the Plan Apo λ40× objective (Nikon Instruments), Xyla 4.2 megapixel, 16-bit sCMOS monochromatic camera (Andor/Oxford Instruments) and NIS-Elements imaging software (Nikon Instruments). A series of 10 sarcomeres were measured per image in AxioVision software and an average sarcomere length was then determined for each fiber.
Mouse limbs harvested 4 weeks post-NBPI were processed on cork at 90° elbow flexion (confirmed by digital x-ray) prior to fixation in 10% NBF as described previously^16. […]
Mice were treated either with saline (as the vehicle; 0.9% Sodium Chloride Injection USP, Hospira), [Gly^14]-Humanin G ([Gly14]-HN; 1 μg/dose; H6161, Sigma-Aldrich) alone or co-administered with Bortezomib (0.2-0.4 mg/kg body weight; 5043140001, Sigma-Aldrich) by IP injection starting immediately post-operative or delayed by 3/7 days (P8/12 start), and injected every other day with sacrifice at 4 weeks post-NBPI (24 h following the last IP injection). […] Deficits in motor function were confirmed as described above, and measurement of shoulder and elbow range of motion was measured immediately post-sacrifice^16 with blinding to the treatment group. […]

[2] = Survival / mortality of NBPI mice during treatment; assay type: in vivo
Method: (§1) Mice were treated either with saline (as the vehicle; 0.9% Sodium Chloride Injection USP, Hospira), [Gly^14]-Humanin G ([Gly14]-HN; 1 μg/dose; H6161, Sigma-Aldrich) alone or co-administered with Bortezomib (0.2-0.4 mg/kg body weight; 5043140001, Sigma-Aldrich) by IP injection starting immediately post-operative or delayed by 3/7 days (P8/12 start), and injected every other day with sacrifice at 4 weeks post-NBPI (24 h following the last IP injection). The use of littermate controls was rejected due to the risk of treatment cross-contamination either through direct contact or by ingestion from their mother, and [Gly14]-HN was included to mitigate the toxicity that has been reported for Bortezomib^47. Deficits in motor function were confirmed as described above, and measurement of shoulder and elbow range of motion was measured immediately post-sacrifice^16 with blinding to the treatment group. Mouse limbs harvested 4 weeks post-NBPI were positioned on cork for processing of bilateral brachialis muscles for DIC microscopy as described above for measurement of muscle sarcomere length.

[3] = tested on: elbow and shoulder contractures after neonatal brachial plexus injury (NBPI); experiment: Elbow and shoulder contracture severity (range of motion) in mouse model of NBPI; assay type: in vivo, mice; details: for contracture severity (efficacy): compared to 0.4 mg/kg from P5; for shoulder and elbow contracture severity: 4 weeks after NBPI
From the text: All animal procedures were approved by Cincinnati Children's Hospital Medical Center's Institutional Animal Care and Use Committee. Unilateral global (C5-T1) NBPIs were created by surgical extraforaminal nerve root excision in 5-day-old CD-1 mice (Charles River) under general anesthesia. Deficits in motor function were validated post-operatively and again prior to sacrifice to ensure only animals with permanent motor deficits were included for analysis. Elbow and shoulder (where indicated) range of motion were measured immediately post-sacrifice using a validated digital photography technique in order to confirm the presence of elbow flexion and shoulder internal rotation contractures^16. Mice were euthanized by CO2 asphyxiation, except at postnatal day 5 and 12 time points, where isoflurane overdose was utilized.
as §1

Compound	reduction in the sarcomere elongation caused by NBPI (rescue of brachialis length) [1]	sarcomere length in the brachialis [1]	mortality ([2]; 0.2 mg/kg, P5 to P33)	mortality ([2]; 0.3 mg/kg, P5 to P33, compared to 0.4 mg/kg from P5)	mortality (early death) ([2]; 0.3 mg/kg, P8 to P33)	mortality ([2]; 0.4 mg/kg every other day, P5 to P33)	mortality ([2]; 0.4 mg/kg, P8 to P33, compared to 0.4 mg/kg from P5)	mortality ([2]; 0.4 mg/kg, P12-P33)	contracture severity ([3]; 0.2 mg/kg, P5 to P33)	contracture severity (efficacy) ([3]; 0.3 mg/kg, P5 to P33)	prevention of contractures ([3]; 0.3 mg/kg, P8 to P33)	shoulder and elbow contracture severity ([3]; 0.4 mg/kg every other day IP, P5 to P33, co-administered with [Gly14]-Humanin, vs saline)	contracture severity (efficacy) ([3]; 0.4 mg/kg, P8 to P33)	contracture severity ([3]; 0.4 mg/kg, P12-P33)	prevention of contractures, dose dependence ([3]; 0.2-0.4 mg/kg following NBPI)	shoulder and elbow contracture severity ([3]; [Gly14]-Humanin alone, 1 μg/dose IP every other day)
CC(C)C[C@H](NC(=O)[C@H](Cc1ccccc1)NC(=O)c1cnccn1)B(O)O [Bortezomib, ([1R)-3-methyl-1-[[(2S)-1-oxo-3-phenyl-2-[(pyrazinylcarbonyl)amino]propyl]amino]butyl]-boronic acid]	70%	preserves muscle length	eliminated mortality	partially improved mortality	minimal early death	caused mortality, mostly in the first week of treatment	partially improved mortality	eliminated mortality	less severe contractures compared to saline they were not as efficacious as 0.4 mg/kg Bortezomib administered beginning at P5	maintained efficacy	optimal efficacy in prevention of contractures; also recorded: lack of contractures	significantly reducing shoulder and elbow contracture severity; also recorded: corrected	maintained efficacy	less severe contractures compared to saline they were not as efficacious as 0.4 mg/kg Bortezomib administered beginning at P5	prevents contractures in a dose-dependent manner	–
[Gly^14]-Humanin	–	–	–	–	–	–	–	–	–	–	–	–	–	–	–	no effect alone
